Patent US20250134857A1, “Fast Acting Joint Health Composition and Use Thereof” (Lonza Greenwood LLC, priority 2022, published 2025)

What was measured:
Type in all cases: cell-based, Human
[1] = tested on: IL-6; test: IL-6 expression by real-time PCR in IL-1β-treated SW1353 cells; conditions: for IL-6 Percent Change over Control: 1 h pretreatment, then IL-1β (5 ng/ml) 24 hr
Experimental: (§1) Human SW1353 chondrosarcoma cell line (ATCC, HTB-94) were grown in monolayer at 37° C., in a humidified atmosphere under 5% CO2, with Dulbecco's Modified Eagle Medium (DMEM) supplemented with 10% (v/v) fetal bovine serum (FBS) and 100 U/ml penicillin-streptomycin solution until 80% confluency with 0.1% v/v DMSO as a vehicle control.
(§2) The SW1353 cells were starved for 24 h with serum-free DMEM medium (containing 100 U/ml penicillin-streptomycin), and then pretreated with various concentrations of andrographolide and tamarind seed extract at three concentrations (in triplicate) for one hour, followed by addition of IL-1β (5 ng/ml) in culture media for an additional 24 hr. In addition, sulforaphane was tested as a positive control in the same manner as andrographolide and TSE, which is illustrated in FIG. 1E.
(§3) Real-time PCR was performed with the use of the SYBR Green PCR Master Mix (Applied Biosystems) according to the manufacturer's protocol and amplified on the ABI Prism 7000 sequence detection system. The results are illustrated in FIGS. 1A-1E, and in Table 1.

[2] = tested on: IL-1A; test: IL-1A expression by real-time PCR in IL-1β-treated SW1353 cells; conditions: for IL-1A Percent Change over Control: 1 h pretreatment, then IL-1β (5 ng/ml) 24 hr
Experimental: as §1, §2, §3

[3] = tested on: COX-2; test: COX-2 expression by real-time PCR in IL-1β-treated SW1353 cells; conditions: 1 h pretreatment, then IL-1β (5 ng/ml) 24 hr
Experimental: as §1, §2
Real-time PCR was performed with the use of the SYBR Green PCR Master Mix (Applied Biosystems) according to the manufacturer's protocol and amplified on the ABI Prism 7000 sequence detection system.

[4] = tested on: SOX-9; test: SOX-9 expression by real-time PCR in IL-1β-treated SW1353 cells; conditions: 1 h pretreatment, then IL-1β (5 ng/ml) 24 hr
Experimental: as §1, §2, §3

[5] = tested on: MMP-13; test: MMP-13 expression by real-time PCR in IL-1β-treated SW1353 cells; conditions: for MMP-13 Percent Change over Control: 1 h pretreatment, then IL-1β (5 ng/ml) 24 hr
Experimental: as §1, §2, §3

[6] = summary of Example 1, SW1353 cells, IL-1β

C=C1CC[C@@H]2[C@](C)(CO)[C@H](O)CC[C@@]2(C)[C@@H]1C/C=C1/C(=O)OC[C@H]1O [Andrographolide, andrographolide]
IL-6 Percent Change over Control ([1]; Dose 2.78): 46.7%
IL-6 Percent Change over Control ([1]; Dose 8.33): 62.8%
IL-6 Percent Change over Control ([1]; Dose 25): 101.3%
IL-6, result in words [1, 6]: significant reduction
IL-1A Percent Change over Control ([2]; Dose 2.78): 28.3%
IL-1A Percent Change over Control ([2]; Dose 8.33): 46.1%
IL-1A Percent Change over Control ([2]; Dose 25): 73.1%
IL-1, result in words [2, 6]: significant reduction
COX-2 Percent Change over Control ([3]; Dose 2.78): 27.1%
COX-2 Percent Change over Control ([3]; Dose 8.33): −22.8%
COX-2 Percent Change over Control ([3]; Dose 25): 59.8%
SOX-9 Percent Change over Control ([4]; Dose 2.78): 14.2%
SOX-9 Percent Change over Control ([4]; Dose 8.33): 10.8%
SOX-9 Percent Change over Control ([4]; Dose 25): 40.5%
MMP-13 Percent Change over Control ([5]; Dose 2.78): 93.0%
MMP-13 Percent Change over Control ([5]; Dose 8.33): 87.2%
MMP-13 Percent Change over Control ([5]; Dose 25): 108.2%
MMP-13, result in words [5, 6]: significant reduction
